Reference: article PMC6853154 (Clinical and Translational Science, 2019)
“Also recorded” adds a separate entry of the source. Read-outs that look alike come from different tables or passages of the source.

How the values were obtained:
[1] = molecular target: T1, CYP1A2 (Homo sapiens, UniProt P05177); settings: human liver microsomal preparations and/or expressed enzymes; cited from earlier work
T1 sequence (P05177 1-516): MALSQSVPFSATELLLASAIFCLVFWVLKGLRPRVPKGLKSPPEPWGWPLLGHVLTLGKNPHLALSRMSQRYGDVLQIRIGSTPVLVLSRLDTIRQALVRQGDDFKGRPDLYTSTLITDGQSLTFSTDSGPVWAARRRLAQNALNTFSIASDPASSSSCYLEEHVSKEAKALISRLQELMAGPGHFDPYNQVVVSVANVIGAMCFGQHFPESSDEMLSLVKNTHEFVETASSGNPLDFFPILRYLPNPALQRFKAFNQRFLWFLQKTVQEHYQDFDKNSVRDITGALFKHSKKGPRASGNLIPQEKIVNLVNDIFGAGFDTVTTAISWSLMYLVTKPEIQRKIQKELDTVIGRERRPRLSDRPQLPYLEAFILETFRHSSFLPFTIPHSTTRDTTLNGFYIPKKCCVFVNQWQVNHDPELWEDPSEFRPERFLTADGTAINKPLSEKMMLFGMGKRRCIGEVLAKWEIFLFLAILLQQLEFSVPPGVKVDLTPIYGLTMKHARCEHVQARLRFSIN

[2] = assay type: in vivo, human; settings: for AUC(0-inf) / Cmax / Tmax / half-life: human, plasma, po; for AUC0–∞, mean percent change / Cmax, mean percent change / t1/2, mean percent change: multiple doses vs single dose of efavirenz
[3] = system: CYP2A6; settings: human liver microsomal preparations and/or expressed enzymes; cited from earlier work
[4] = system: CYP2A6; assay: In vivo CYP2A6 activity from urinary caffeine metabolic ratio; parameters: species or system human
[5] = Efavirenz plasma exposure in healthy volunteers, also by CYP2B6 genotype; settings: following a single dose and multiple doses of efavirenz
[6] = system: CYP2C8; settings: at therapeutically relevant concentrations; cited from earlier work
[7] = molecular target: T2, N‐acetyltransferase 2 (NAT2) (Homo sapiens, UniProt P11245); assay: In vivo NAT2 activity from urinary caffeine metabolic ratio; settings: for NAT2 activity, urinary MR AFMU/(AFMU + 1 MU + 1 MX): mean ± SD
T2 sequence (P11245 1-290): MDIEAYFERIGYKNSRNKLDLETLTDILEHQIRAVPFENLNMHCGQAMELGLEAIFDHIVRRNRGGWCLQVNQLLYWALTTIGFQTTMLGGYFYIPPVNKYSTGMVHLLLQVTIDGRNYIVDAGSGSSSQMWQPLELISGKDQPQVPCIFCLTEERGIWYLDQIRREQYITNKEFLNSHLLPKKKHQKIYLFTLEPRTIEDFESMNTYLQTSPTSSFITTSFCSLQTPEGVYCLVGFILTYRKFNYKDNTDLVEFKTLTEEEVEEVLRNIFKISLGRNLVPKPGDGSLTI

[8] = system: CYP2B6; settings: at therapeutically relevant concentrations; cited from earlier work
[9] = system: CYP2C9; settings: at therapeutically relevant concentrations; cited from earlier work
[10] = molecular target: xanthine oxidase (XO) (Homo sapiens, UniProt P47989); assay: In vivo xanthine oxidase activity from urinary caffeine metabolic ratio; settings: for XO activity, urinary MR (1 MU)/(1 MX + 1 MU): mean ± SD
xanthine oxidase (XO), sequence (P47989 whole entry): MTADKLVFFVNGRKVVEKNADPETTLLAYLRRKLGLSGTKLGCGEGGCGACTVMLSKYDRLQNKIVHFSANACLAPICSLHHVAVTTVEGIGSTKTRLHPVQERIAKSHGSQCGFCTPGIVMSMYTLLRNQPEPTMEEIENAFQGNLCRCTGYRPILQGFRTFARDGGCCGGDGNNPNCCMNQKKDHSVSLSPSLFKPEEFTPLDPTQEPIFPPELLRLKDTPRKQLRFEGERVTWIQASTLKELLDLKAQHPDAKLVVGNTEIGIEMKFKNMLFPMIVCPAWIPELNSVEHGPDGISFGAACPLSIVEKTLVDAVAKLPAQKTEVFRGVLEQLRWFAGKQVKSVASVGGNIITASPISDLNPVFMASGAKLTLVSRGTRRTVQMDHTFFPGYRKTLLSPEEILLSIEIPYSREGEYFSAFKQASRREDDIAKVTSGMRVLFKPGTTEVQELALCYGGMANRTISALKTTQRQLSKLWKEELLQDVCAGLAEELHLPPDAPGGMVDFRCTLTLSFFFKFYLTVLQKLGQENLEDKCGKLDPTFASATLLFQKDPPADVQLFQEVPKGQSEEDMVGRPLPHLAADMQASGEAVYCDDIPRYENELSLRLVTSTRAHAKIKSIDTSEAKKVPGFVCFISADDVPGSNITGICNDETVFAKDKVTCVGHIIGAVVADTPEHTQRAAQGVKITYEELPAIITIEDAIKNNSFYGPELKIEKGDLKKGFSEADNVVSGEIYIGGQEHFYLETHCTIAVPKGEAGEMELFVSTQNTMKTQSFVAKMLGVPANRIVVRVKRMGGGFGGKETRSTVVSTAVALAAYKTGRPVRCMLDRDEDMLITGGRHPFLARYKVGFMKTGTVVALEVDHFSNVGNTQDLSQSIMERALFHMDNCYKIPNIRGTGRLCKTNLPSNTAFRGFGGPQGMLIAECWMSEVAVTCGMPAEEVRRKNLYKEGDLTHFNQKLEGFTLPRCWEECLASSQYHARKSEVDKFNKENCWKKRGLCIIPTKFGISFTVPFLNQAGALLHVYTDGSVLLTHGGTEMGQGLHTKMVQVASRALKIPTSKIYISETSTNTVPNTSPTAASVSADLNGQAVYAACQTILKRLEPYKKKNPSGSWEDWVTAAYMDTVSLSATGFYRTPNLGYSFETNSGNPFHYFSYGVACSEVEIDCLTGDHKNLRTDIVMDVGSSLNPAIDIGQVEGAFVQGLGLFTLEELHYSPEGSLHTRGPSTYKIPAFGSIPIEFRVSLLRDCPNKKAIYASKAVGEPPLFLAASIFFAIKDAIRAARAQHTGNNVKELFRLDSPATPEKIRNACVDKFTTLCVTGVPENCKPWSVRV

[11] = molecular target: T1, CYP1A2; assay: In vivo CYP1A2 activity from plasma paraxanthine/caffeine metabolic ratio
[12] = cited from earlier work
[13] = molecular target: T1, CYP1A2; assay: In vivo CYP1A2 activity from urinary caffeine metabolic ratio
[14] = system: CYP2C19; settings: at therapeutically relevant concentrations; cited from earlier work
[15] = HIV/tuberculosis‐coinfected patients, cited from earlier work
[16] = system: CYP1A2; settings: coadministration of potent CYP1A2 inhibitor; cited from earlier work
[17] = multiple doses relative to single‐dose efavirenz
[18] = multiple doses vs single dose of efavirenz
[19] = multiple doses of efavirenz (600 mg/day, 17 days)
[20] = after multiple doses of efavirenz
[21] = chronic efavirenz relative to single‐dose phase

## O=C1Nc2c(O)cc(Cl)cc2[C@@](C#CC2CC2)(C(F)(F)F)O1 [8‐hydroxyefavirenz]
[1]
  Inhibition/inactivation of CYP1A2 activity in vitro, in words: no effect

## Cn1c(=O)c2c(ncn2C)n(C)c1=O [Caffeine]
[2]; both efavirenz treatment groups, compared with *1/*1 genotype
  Caffeine AUC0‐∞ by CYP2B6 genotype, in words: significantly higher for *6/*6 genotype
[2]
  AUC(0-inf): 17300 ± 11600 ng·h/mL
  Cmax: 1820 ng/mL
  Tmax: 1 h
  half-life: 7.61 ± 8.29 h
  AUC0–∞, mean percent change: 46.2%
  Cmax, mean percent change: 17.4%
  t1/2, mean percent change: 32.5%
[2]; 150 mg
  AUC(0-inf): 22700 ± 18400 ng·h/mL
  Cmax: 1900 ng/mL
  Tmax: 1 h
  half-life: 8.87 ± 4.98 h

## Cn1c(=O)[nH]c2ncn(C)c2c1=O [Paraxanthine, 1,7‐dimethylxanthine]
[2]
  AUC(0-inf): 10800 ± 6100 ng·h/mL
  Cmax: 504 ± 236 ng/mL
  Tmax: 7 h
  half-life: 10.8 ± 9.21 h
  AUC0–∞, mean percent change: −8.6%
  Cmax, mean percent change: −24.5%
  t1/2, mean percent change: 26.3%
[2]; 150 mg
  AUC(0-inf): 8600 ± 5800 ng·h/mL
  Cmax: 358 ± 208 ng/mL
  Tmax: 7 h
  half-life: 12.2 ± 7.88 h

## O=C1Nc2ccc(Cl)cc2[C@@](C#CC2CC2)(C(F)(F)F)O1 [efavirenz]
[3]
  Inhibition/inactivation of CYP2A6 activity in vitro, in words: does not inhibit/inactivate
[4]; [17]
  Increase of CYP2A6 activity: 85%
[4]; [18]
  CYP2A6 activity, urinary MR, mean percent change: 85.5%
[5]
  Between‐subject differences in efavirenz exposure: Approximately sevenfold
[6]
  Inhibition of CYP2C8 in vitro, in words: directly inhibits
[7]; [19]
  NAT2 activity, urinary MR AFMU/(AFMU + 1 MU + 1 MX): 0.32 ± 0.22
[7]; [17]
  Effect on NAT2 activity (urinary MR), in words: unaffected; also recorded: not significantly altered
[7]; [18]
  NAT2 activity, urinary MR, mean percent change: 4.5%
[7]; single 600 mg efavirenz dose
  NAT2 activity, urinary MR AFMU/(AFMU + 1 MU + 1 MX): 0.31 ± 0.21
[8]
  Inhibition of CYP2B6 in vitro, in words: directly inhibits
[9]
  Inhibition of CYP2C9 in vitro, in words: directly inhibits
[10]; [19]
  XO activity, urinary MR (1 MU)/(1 MX + 1 MU): 0.37 ± 0.16
[10]; [17]
  Effect on XO activity (urinary MR), in words: unaffected; also recorded: not significantly altered
[10]; [18]
  XO activity, urinary MR, mean percent change: 1.1%
[10]; single 600 mg efavirenz dose
  XO activity, urinary MR (1 MU)/(1 MX + 1 MU): 0.37 ± 0.16
[11]; [20]
  Correlation (r s) of CYP1A2 activity with efavirenz AUC0–24 h: −0.61
  Correlation (r s) of percent change in CYP1A2 activity with efavirenz AUC0–24 h: −0.41
[11]; [21]
  Decrease of CYP1A2 activity (plasma MRs): 38%
[11]; chronic efavirenz relative to single‐dose phase, 58 subjects
  Interindividual range of percent change in CYP1A2 activity (plasma MRs): −78.2% to 31.7
[11]; [18]
  CYP1A2 activity, plasma MR, mean percent change: −38.1%
[11]; single 600 mg dose of efavirenz
  Correlation (r s) of CYP1A2 activity with efavirenz AUC0–∞: −0.32
[12]; multiple doses of efavirenz
  Efavirenz exposure (AUC0–24), fold higher in CYP2B6*6/*6 vs CYP2B6*1/*1: 2.5 fold
  Efavirenz exposure (AUC0–24), fold higher in CYP2B6*6/*6 vs CYP2B6*1/*6: 2 fold
[12]; single dose of efavirenz
  Efavirenz exposure (AUC0–∞), fold higher in CYP2B6*6/*6 vs CYP2B6*1/*1: 2.1 fold
  Efavirenz exposure (AUC0–∞), fold higher in CYP2B6*6/*6 vs CYP2B6*1/*6: 1.8 fold
[1]
  Inhibition/inactivation of CYP1A2 activity in vitro, in words: does not inhibit/inactivate; also recorded: neither a reversible inhibitor nor a mechanism‐based (i.e., time‐dependent) inactivator
[13]; [21]
  Decrease of CYP1A2 activity measured by urinary MRs: 28.9%
  Interindividual range of percent change in urine MR (CYP1A2): −65.1% to 43.2
[13]; [18]
  CYP1A2 activity, urinary MR, mean percent change: −28.9%
[14]
  Inhibition of CYP2C19 in vitro, in words: directly inhibits
[15]; fast acetylators
  Reduction of model‐predicted exposure of isoniazid by efavirenz: 29%
[15]; slow acetylators
  Effect of efavirenz on model‐predicted exposure of isoniazid, in words: no effect

## COCCCC/C(=N\OCCN)c1ccc(C(F)(F)F)cc1 [fluvoxamine]
[16]
  Increase of plasma exposure of tizanidine: up to 30 fold
